US10940139B2, “Compounds that interact with the Ras superfamily for the treatment of cancers, inflammatory diseases, rasopathies, and fibrotic disease” (Shy Therapeutics LLC, priority 2017, dated 2021)

Test system: MIA-PACA2 pancreatic cancer cell lines
Assay: Cell proliferation assay (CellTiter 96 AQueous One)
Format: cell-based
Details: Homo sapiens, MIA PaCa-2; for inhibition at 30 µM: MIA-PACA2; for IC50: MIA-PACA2, same assay as the % inhibition (standard conditions)

Compound	inhibition at 30 µM [%]	IC50 [nM]
N#Cc1ccc(COCC(=O)Nc2ccnc(-c3ccccn3)n2)cc1 [drawing 1689]	76 to 100	
Cc1cnc(-c2ccccn2)nc1NC(=O)C(C)c1ccc(C#N)cc1 (stereo not drawn) [drawing 1690]	76 to 100	
CC(C(=O)Nc1nc(-c2ccccn2)nc2sccc12)c1ccc(C#N)cc1 (stereo not drawn) [drawing 1691]	76 to 100	
N#Cc1ccc(COCC(=O)Nc2nc(-c3ccccn3)nc3sccc23)cc1 [drawing 1692]	76 to 100	
COc1ccnc(-c2nc(O)c3c(Cl)csc3n2)c1 [drawing 1693]	76 to 100	
COc1ccc(N2CCN(C(=O)c3csc4c(O)nc(-c5ccccn5)nc34)CC2)cc1O [drawing 1695]	76 to 100	
O=C(c1csc2c(O)nc(-c3ccccn3)nc12)N1CCN(c2ccc(O)c(Cl)c2)CC1 [drawing 1696]	76 to 100	
CC(c1ccccc1)N1CCN(C(=O)c2csc3c(O)nc(-c4ccccn4)nc23)CC1 (stereo not drawn) [drawing 1697]	76 to 100	
O=C(c1csc2c(O)nc(-c3ccccn3)nc12)N1CCOC(CN2CCOCC2)C1 (stereo not drawn) [drawing 1698]	51 to 75	
O=C(c1csc2c(O)nc(-c3ccccn3)nc12)N1CCNC(c2ccccc2Cl)C1 (stereo not drawn) [drawing 1699]	76 to 100	
O=C(c1csc2c(O)nc(-c3ccccn3)nc12)N1CCNC(c2ccc(F)cc2)C1 (stereo not drawn) [drawing 1700]	76 to 100	
O=C(c1csc2c(O)nc(-c3ccccn3)nc12)N1CCNC(c2ccc(O)cc2)C1 (stereo not drawn) [drawing 1701]	76 to 100	
COCCCCNC(=O)c1csc2nc(-c3ccccn3)nc(N3CCS(=O)(=O)CC3)c12 [drawing 1702]	1 to 25	
Cc1cnc(-c2ccccn2)nc1NC(=O)C1CCCc2cc(C#N)ccc21 (stereo not drawn) [drawing 1703]	76 to 100	
O=C(COCc1ccncc1)Nc1nc(-c2ccccn2)nc2sccc12 [drawing 1704]	76 to 100	
O=C(COCc1cccnc1)Nc1nc(-c2ccccn2)nc2sccc12 [drawing 1705]	76 to 100	
COc1cccc(CC2CN(C(=O)c3csc4c(O)nc(-c5ccccn5)nc34)CCN2)c1 (stereo not drawn) [drawing 1706]	1 to 25	
O=C(c1csc2c(O)nc(-c3ccccn3)nc12)N1CCNC(Cc2ccc(F)cc2)C1 (stereo not drawn) [drawing 1707]	51 to 75	
O=C(c1csc2c(O)nc(-c3ccccn3)nc12)N1CCNC(Cc2cccc(F)c2)C1 (stereo not drawn) [drawing 1708]	25 to 50	
COc1ccnc(-c2nc(O)c3c(C(F)(F)F)csc3n2)c1 [drawing 1709]	76 to 100	
Nc1nc(-c2ccccn2)nc2ccsc12 [drawing 1710]	1 to 25	

Compound	inhibition at 30 µM [%]	IC50 [nM]
Nc1nc(-c2ccccn2)nc2c(-c3ccccc3Cl)csc12 [drawing 1711]	76 to 100	
Cc1cc2nc(-c3ccccn3)nc(N)c2s1 [drawing 1712]	76 to 100	
Cc1sc2c(N)nc(-c3ccccn3)nc2c1-c1ccccc1 [drawing 1713]	76 to 100	
O=C(c1csc2c(O)nc(-c3ccccn3)nc12)N1CC2CC1CN2c1ccccc1 (stereo not drawn) [drawing 1714]	76 to 100	
O=C(c1csc2c(O)nc(-c3ccccn3)nc12)N1CCC(c2ccncc2)C1 (stereo not drawn) [drawing 1715]	76 to 100	
O=C(c1csc2c(O)nc(-c3ccccn3)nc12)N1CCC(c2cccc(O)c2)C1 (stereo not drawn) [drawing 1716]	76 to 100	
O=C(c1cc2nc(-c3ccccn3)nc(O)c2s1)N1CCN(c2ccccc2)CC1 [drawing 1717]	76 to 100	
O=C(c1cc2nc(-c3ccccn3)nc(O)c2s1)N1CCOC(c2ccccc2)C1 (stereo not drawn) [drawing 1718]	76 to 100	
O=C(NCCc1cccnc1)c1cc2nc(-c3ccccn3)nc(O)c2s1 [drawing 1719]	76 to 100	
Cc1ccc(OC2CCCC2)c(-c2csc3c(O)nc(-c4ccccn4)nc23)c1 [drawing 1720]	76 to 100	
CN(C)Cc1ccc(-c2csc3c(O)nc(-c4ccccn4)nc23)cc1F [drawing 1721]	76 to 100	100 to 500
CC(C)(C)c1ccc(-c2csc3c(O)nc(-c4ccccn4)nc23)cc1 [drawing 1723]	76 to 100	100 to 500
Oc1nc(-c2ccccn2)nc2c(-c3cc(Cl)cc(Cl)c3)csc12 [drawing 1724]	76 to 100	100 to 500
Oc1nc(-c2ccccn2)nc2c(-c3cccc4c3OCO4)csc12 [drawing 1725]	76 to 100	100 to 500
O=C(O)c1cc2nc(-c3ccccn3)nc(O)c2s1 [drawing 1726]	51 to 75	
Oc1nc(-c2ccccn2)nc2sc3c(c12)CCNC3 [drawing 1727]	76 to 100	
Oc1nc(-c2ccccn2)nc2sc3c(c12)CCCNC3 [drawing 1728]	25 to 50	
COc1ccc(CCNC(=O)c2csc3nc(-c4ccccn4)nc(N4CCS(=O)(=O)CC4)c23)cn1 [drawing 1729]	51 to 75	
O=C(NCCc1cnc(O)nc1)c1csc2nc(-c3ccccn3)nc(N3CCS(=O)(=O)CC3)c12 [drawing 1730]	1 to 25	
N#Cc1ccc2c(c1)CCCC2C(=O)Nc1ccnc(-c2ccccn2)n1 (stereo not drawn) [drawing 1731]	76 to 100	
Cc1cnc(-c2ccccn2)nc1NC(=O)Cc1ccc2cnccc2c1 [drawing 1732]	76 to 100	

Compound	inhibition at 30 µM [%]	IC50 [nM]
O=C(COCc1ccnc(O)c1)Nc1nc(-c2ccccn2)nc2sccc12 [drawing 1733]	51 to 75	
O=C(c1csc2c(O)nc(-c3ccccn3)nc12)N1CCNC(c2cn[nH]c2)C1 (stereo not drawn) [drawing 1734]	1 to 25	
Nc1nc(-c2ccccn2)nc2c(-c3ccccc3)csc12 [drawing 1735]	76 to 100	
Oc1nc(-c2ccccn2)nc2c(-c3cc(F)ccc3OC(F)F)csc12 [drawing 1736]	76 to 100	
Cn1nnc2ccc(-c3csc4c(O)nc(-c5ccccn5)nc34)cc21 [drawing 1737]	76 to 100	
Oc1nc(-c2ccccn2)nc2c(-c3ccc(OC4CCOC4)cc3)csc12 (stereo not drawn) [drawing 1738]	76 to 100	
Oc1nc(-c2ccccn2)nc2c(-c3ccc(OC4CCCC4)cc3)csc12 [drawing 1739]	76 to 100	
O=S1(=O)CCN(Cc2cccc(-c3csc4c(O)nc(-c5ccccn5)nc34)c2)CC1 [drawing 1740]	76 to 100	
Oc1nc(-c2ccccn2)nc2c(-c3ccc(C4CCC4)cc3)csc12 [drawing 1741]	76 to 100	
Oc1nc(-c2ccccn2)nc2c(-c3ccccc3OC3CCCCC3)csc12 [drawing 1742]	76 to 100	
Oc1nc(-c2ccccn2)nc2c(-c3ccc(OC4CCOCC4)cc3)csc12 [drawing 1743]	76 to 100	
Oc1nc(-c2ccccn2)nc2c(-c3ccccc3F)csc12 [drawing 1744]	76 to 100	
COc1cc(C)c(-c2csc3c(O)nc(-c4ccccn4)nc23)cc1C [drawing 1745]	76 to 100	
COc1ccccc1-c1csc2c(O)nc(-c3ccccn3)nc12 [drawing 1746]	76 to 100	
Oc1nc(-c2ccccn2)nc2c(-c3ccc(F)cc3F)csc12 [drawing 1747]	76 to 100	
COc1cccc(-c2csc3c(O)nc(-c4ccccn4)nc23)c1 [drawing 1748]	76 to 100	
COc1ccc(F)cc1-c1csc2c(O)nc(-c3ccccn3)nc12 [drawing 1750]	76 to 100	
Oc1nc(-c2ccccn2)nc2c(-c3ccsc3)csc12 [drawing 1751]	76 to 100	
Oc1nc(-c2ccccn2)nc2c(-c3ccc(OC(F)F)cc3F)csc12 [drawing 1752]	76 to 100	
Cc1cc(OC(F)F)ccc1-c1csc2c(O)nc(-c3ccccn3)nc12 [drawing 1754]	76 to 100	
Oc1nc(-c2ccccn2)nc2c(-c3ccc4c(c3)OCO4)csc12 [drawing 1755]	76 to 100	

Compound	inhibition at 30 µM [%]	IC50 [nM]
CC(C)(O)c1ccc(-c2csc3c(O)nc(-c4ccccn4)nc23)c(F)c1 [drawing 1756]	76 to 100	
COc1ccc(-c2csc3c(O)nc(-c4ccccn4)nc23)c(C)c1 [drawing 1757]	76 to 100	
Oc1nc(-c2ccccn2)nc2c(-c3ccc(CN4CCOCC4)cc3)csc12 [drawing 1758]	76 to 100	
Oc1nc(-c2ccccn2)nc2c(-c3ccccc3C(F)F)csc12 [drawing 1759]	76 to 100	
COc1cc(-c2csc3c(O)nc(-c4ccccn4)nc23)cnc1C(F)(F)F [drawing 1760]	76 to 100	
CNC(=O)c1ccc(-c2csc3c(O)nc(-c4ccccn4)nc23)cc1C [drawing 1761]	76 to 100	
OCC1(c2ccc(-c3csc4c(O)nc(-c5ccccn5)nc34)cc2)CC1 [drawing 1762]	76 to 100	
Oc1nc(-c2ccccn2)nc2c(-c3ccc(OC4CCCCC4)cc3)csc12 [drawing 1763]	76 to 100	
Cc1cnccc1-c1csc2c(O)nc(-c3ccccn3)nc12 [drawing 1764]	76 to 100	
O=C(CCc1nn[nH]n1)Nc1nc(-c2ccccn2)nc2sccc12 [drawing 1766]	51 to 75	
O=C(CCc1cncnc1)Nc1nc(-c2ccccn2)nc2sccc12 [drawing 1767]	76 to 100	
Nc1nc(-c2ccccn2)nc2c(Br)csc12 [drawing 1768]	25 to 50	
Cc1sc2c(N)nc(-c3ccccn3)nc2c1Br [drawing 1769]	76 to 100	
Nc1nc(-c2ccccn2)nc2scc(Br)c12 [drawing 1770]	1 to 25	
COC(=O)c1csc2nc(-c3ccccn3)nc(N)c12 [drawing 1771]	76 to 100	
COc1nccc(CCNC(=O)c2csc3nc(-c4ccccn4)nc(N4CCOCC4)c23)n1 [drawing 1773]	76 to 100	
O=C(NCCc1ccnc(O)n1)c1csc2nc(-c3ccccn3)nc(N3CCOCC3)c12 [drawing 1774]	1 to 25	
CN1CCN(c2nc(-c3ccccn3)nc3scc(C(=O)NCCc4cnc(O)nc4)c23)CC1 [drawing 1775]	25 to 50	
Oc1nc(-c2ccccn2)nc2c(-c3cc(F)cc(F)c3)csc12 [drawing 1776]	76 to 100	
CN(C)Cc1ccc(F)c(-c2csc3c(O)nc(-c4ccccn4)nc23)c1 [drawing 1777]	76 to 100	
